Source: patent publication US20170009093A1, “LIQUID COMPOSITION, PIGMENT DISPERSION LIQUID, AND INK JET RECORDING AQUEOUS INK COMPOSITION” (Seiko Epson Corporation, priority 2015, published 2017)

Assay: water-octanol partition coefficient (log P), OECD Test Guideline 107
Assay type: physicochemical
Conditions: not given
Experimental: The water-octanol partition coefficient, or log P value, is a value defined by OECD Test Guideline 107. […] The constituents shown in Table 1 were as below, and the log P values in Table 1 were determined in accordance with OECD Test Guideline 107. • (1) First solvents

In the case of `CCCCOCCOCCO` [butyl diglycol], the “log P (water-octanol partition coefficient)” value was 0.56.

Same assay, conditions: OECD Test Guideline 107

Point of comparison: dipropylene glycol monomethyl ether, “log P (water-octanol partition coefficient)” value −0.46. Against it:
- COCCOCCOCCOCCO [Methyl tetraglycol, reference compound] — lower, −1.87

`CCC(O)CO` (stereo not shown) [1,2-butanediol] gave a logP of -0.34.

Same assay, conditions: octanol/water; OECD Test Guideline 107

Point of comparison: `CC(O)(CO)COc1ccccc1` (stereo not shown) [2-methyl-3-phenoxy-1,2-propanediol], logP 1.1. Against it:
- CC(C)(C)C(O)CO (stereo not shown) [3,3-dimethylbutane-1,2-diol] — lower, -0.11
- Cc1cccc(OCC(O)CO)c1 (stereo not shown) [3-(3-methylphenoxy)-1,2-propanediol] — within 0.2 log units, 1.21
- OCC(CO)(CO)COc1ccccc1 [2-hydroxymethyl-2-phenoxymethyl-1,3-propanediol] — higher, 1.69
- OCC(O)COCc1ccccc1 (stereo not shown) [3-benzyloxy-1,2-propanediol] — lower, 0.88
- COc1ccc(COCC(O)CO)cc1 (stereo not shown) [3-(4-methoxybenzyloxy)-1,2-propanediol] — lower, 0.8
- CCCCCC(O)CO (stereo not shown) [1,2-heptanediol] — within 0.2 log units, 1
- OCC(O)COc1ccccc1 (stereo not shown) [phenyl glyceryl ether] — lower, 0.75
- CCCCC(O)CO (stereo not shown) [1,2-hexanediol] — lower, 0.7
